EPA's ToxRefDB 2

Key:
rat [1] = conditions: Multigenerational reproductive toxicity study, sprague dawley, Oral, Feed, dose end: 2 generation
rat [2] = conditions: Prenatal developmental toxicity study, sprague dawley, Oral, Gavage/Intubation, dose end: 19 GD
mouse [3] = conditions: Carcinogenicity, b6c3f1, Oral, Feed, dose end: 18 month, group: systemic
rat [4] = conditions: Combined chronic toxicity/carcinogenicity; fischer; Oral; Feed; dose end: 2 year; group: systemic; systemic / clinical chemistry / alkaline phosphatase (alp/alk) / alkaline phosphatase (alp/alk) + systemic / clinical chemistry / globulins…
rabbit [5] = conditions: Prenatal developmental toxicity study; new zealand white; Oral; Gavage/Intubation; dose end: 18 GD; group: maternal; systemic / in life observation / body weight / body weight gain + systemic / in life observation / clinical signs / anorexia + systemic / in…
mouse [6] = conditions: Carcinogenicity; cd1; Oral; Feed; dose end: 87 week; group: systemic; systemic / clinical chemistry / alanine aminotransferase (alt/sgpt) / alanine aminotransferase (alt/sgpt) + systemic / clinical chemistry / …
rat [7] = conditions: Prenatal developmental toxicity study, other, Oral, Gavage/Intubation, dose end: 15 GD
rat [8] = conditions: Subchronic oral toxicity in rodents, long evans, Feed, dose end: 13 week, group: systemic, systemic / organ weight / liver / absolute + systemic / organ weight / liver / relative to body weight + systemic / pathology microscopic / …
rabbit [9] = conditions: Prenatal developmental toxicity study; new zealand white; Oral; Gavage/Intubation; dose end: 19 GD; group: maternal; reproductive / reproductive performance / aborted / aborted + reproductive / reproductive performance / resorptions / resorptions + systemic…
rat [10] = conditions: Subchronic oral toxicity in rodents, other, Feed, dose end: 13 week, group: systemic, systemic / organ weight / liver / relative to body weight + systemic / organ weight / thymus / absolute + systemic / organ weight / thymus…
rat [11] = conditions: Subchronic oral toxicity in rodents, sprague dawley, Diet, dose end: 13 week, group: systemic
rat [12] = conditions: Multigenerational reproductive toxicity study, sprague dawley, Oral, Feed, dose end: 2 generation; remark: listed apart in the source
dog [13] = conditions: Chronic toxicity, beagle, Oral, Feed, dose end: 104 week, group: systemic
rat [14] = conditions: Subchronic oral toxicity in rodents, other, [Not Specified], dose end: 13 week, group: systemic
rat [15] = conditions: Prenatal developmental toxicity study, sprague dawley, Oral, Gavage/Intubation, dose end: 15 GD
rat [16] = conditions: Combined chronic toxicity/carcinogenicity, other, Oral, Feed, dose end: 100 week, group: systemic
rat [17] = conditions: Multigenerational reproductive toxicity study, sprague dawley, Oral, Feed, dose end: 2 generation; remark: listed apart in the source
mouse [18] = conditions: Carcinogenicity, cd1, Oral, Feed, dose end: 78 week, group: systemic
dog [19] = conditions: Chronic toxicity, beagle, Oral, Capsule, dose end: 52 week, group: systemic
rabbit [20] = conditions: Prenatal developmental toxicity study, new zealand white, Oral, Gavage/Intubation, dose end: 19 GD
[21] = group: offspring, developmental / offspring survival late / viability index / viability index + systemic / pathology microscopic / kidney / dilatation
[22] = group: offspring, developmental / offspring survival late / viability index / viability index + systemic / pathology microscopic / kidney / dilatation + …
[23] = group: parental, systemic / pathology microscopic / kidney / dilatation + systemic / in life observation / body weight / body weight + systemic / in life …
[24] = group: developmental, developmental / developmental malformation / bone / incomplete ossification + developmental / developmental malformation / brain / dilated …
[25] = group: maternal, systemic / in life observation / clinical signs / piloerection + systemic / in life observation / clinical signs / salivation
[26] = group: maternal, systemic / in life observation / clinical signs / piloerection + systemic / in life observation / clinical signs / salivation + reproductive…
[27] = systemic / organ weight / liver / absolute + systemic / in life observation / body weight / body weight
[28] = systemic / organ weight / liver / absolute + systemic / in life observation / body weight / body weight + systemic / organ weight / liver / …
[29] = group: developmental, developmental / developmental malformation / bone / bent + developmental / developmental malformation / bone / fused + developmental / …
[30] = group: maternal, systemic / in life observation / clinical signs / defecation + systemic / in life observation / clinical signs / defecation (diarrhea) + …
[31] = systemic / in life observation / clinical signs / anemia - microcytic + systemic / urinalysis / volume / volume + systemic / clinical …
[32] = group: offspring, systemic / in life observation / body weight / offspring (pup) weight + systemic / in life observation / body weight / offspring (pup) …
[33] = group: parental, systemic / pathology microscopic / kidney / hyperplasia + systemic / pathology microscopic / kidney / mineralization + systemic / pathology …
[34] = group: reproductive, reproductive / offspring survival early / birth index / live birth index
[35] = systemic / clinical chemistry / alkaline phosphatase (alp/alk) / alkaline phosphatase (alp/alk) + systemic / in life observation / body …
[36] = systemic / in life observation / body weight / body weight gain + systemic / organ weight / liver / absolute + systemic / organ weight / …
[37] = systemic / urinalysis / ph / ph
[38] = group: developmental, developmental / developmental malformation / bone / full supernumerary
[39] = group: maternal, systemic / in life observation / body weight / body weight gain
[40] = systemic / pathology gross / adrenal gland / enlarged
[41] = group: offspring, developmental / offspring survival late / viability index / viability index
[42] = group: offspring, developmental / offspring survival late / viability index / viability index + systemic / in life observation / body weight / offspring (pup…
[43] = group: parental, systemic / in life observation / body weight / body weight + systemic / in life observation / mortality / mortality + systemic / pathology …
[44] = systemic / pathology microscopic / liver / vacuolization
[45] = systemic / pathology microscopic / liver / vacuolization + systemic / in life observation / body weight / body weight gain + systemic / …
[46] = systemic / clinical chemistry / alanine aminotransferase (alt/sgpt) / alanine aminotransferase (alt/sgpt) + systemic / clinical chemistry / …
[47] = systemic / in life observation / body weight / body weight gain
[48] = group: developmental, developmental / developmental malformation / bone / irregular ossification + developmental / developmental malformation / bone / misshapen …
[49] = group: maternal, systemic / in life observation / body weight / body weight gain + systemic / in life observation / food consumption / food consumption + …

O=C([O-])c1cc(Oc2ccc(C(F)(F)F)cc2Cl)ccc1[N+](=O)[O-].[Na+] [Acifluorfen-sodium]
LEL (rat [1]; [21]): 50 mg/kg/day | LOAEL (rat [1]; [21]): 50 mg/kg/day | NEL (rat [1]; [22]): 2.5 mg/kg/day | NOAEL (rat [1]; [22]): 2.5 mg/kg/day | LOAEL (rat [1]; group: parental, systemic / pathology microscopic / kidney / dilatation): 50 mg/kg/day | NEL (rat [1]; [23]): 2.5 mg/kg/day | NOAEL (rat [1]; [23]): 2.5 mg/kg/day | LEL (rat [1]; group: parental, systemic / pathology microscopic / kidney / dilatation + systemic / in life observation / body weight / body weight gain): 50 mg/kg/day | LEL (rat [2]; [24]): 90 mg/kg/day | LOAEL (rat [2]; [24]): 90 mg/kg/day | NEL (rat [2]; [24]): 20 mg/kg/day | NOAEL (rat [2]; [24]): 20 mg/kg/day | LEL (rat [2]; [25]): 90 mg/kg/day | LOAEL (rat [2]; [25]): 90 mg/kg/day | NEL (rat [2]; [26]): 20 mg/kg/day | NOAEL (rat [2]; [26]): 20 mg/kg/day | LOAEL (mouse [3]; [27]): 119 mg/kg/day | NOAEL (mouse [3]; [27]): < 119 mg/kg/day | LEL (mouse [3]; [28]): 119 mg/kg/day | NEL (mouse [3]; [28]): < 119 mg/kg/day | LEL (rat [4]): 125 mg/kg/day | LOAEL (rat [4]): 125 mg/kg/day | NEL (rat [4]): 25 mg/kg/day | NOAEL (rat [4]): 25 mg/kg/day

CCOc1cc(Oc2ccc(C(F)(F)F)cc2Cl)ccc1[N+](=O)[O-] [Oxyfluorfen]
LEL (rabbit [5]): 30 mg/kg/day | LOAEL (rabbit [5]): 30 mg/kg/day | NEL (rabbit [5]): 10 mg/kg/day | NOAEL (rabbit [5]): 10 mg/kg/day | LEL (mouse [6]): 33 mg/kg/day | LOAEL (mouse [6]): 33 mg/kg/day | NEL (mouse [6]): 3 mg/kg/day | NOAEL (mouse [6]): 3 mg/kg/day | LEL (rat [7]; [29]): 183 mg/kg/day | LOAEL (rat [7]; [29]): 183 mg/kg/day | NEL (rat [7]; [29]): 18 mg/kg/day | NOAEL (rat [7]; [29]): 18 mg/kg/day | LEL (rat [7]; [30]): 183 mg/kg/day | LOAEL (rat [7]; [30]): 183 mg/kg/day | NEL (rat [7]; [30]): 18 mg/kg/day | NOAEL (rat [7]; [30]): 18 mg/kg/day | LEL (rat [8]): 51.4 mg/kg/day | LOAEL (rat [8]): 51.4 mg/kg/day | NEL (rat [8]): < 51.4 mg/kg/day | NOAEL (rat [8]): < 51.4 mg/kg/day | LEL (rabbit [9]): 90 mg/kg/day | LOAEL (rabbit [9]): 90 mg/kg/day | NEL (rabbit [9]): 30 mg/kg/day | NOAEL (rabbit [9]): 30 mg/kg/day | LEL (rat [10]): 71 mg/kg/day | LOAEL (rat [10]): 71 mg/kg/day | NEL (rat [10]): 14 mg/kg/day | NOAEL (rat [10]): 14 mg/kg/day | LEL (rat [11]; systemic / hematology / mean corpuscular (cell) volume (mcv) / mean corpuscular (cell) volume (mcv) + systemic / hematology / mean …): 144 mg/kg/day | LOAEL (rat [11]; systemic / in life observation / clinical signs / anemia - microcytic + systemic / urinalysis / volume / volume): 585 mg/kg/day | NEL (rat [11]; [31]): 46.7 mg/kg/day | NOAEL (rat [11]; [31]): 144 mg/kg/day | LEL (rat [12]; [32]): 146 mg/kg/day | LOAEL (rat [12]; [32]): 146 mg/kg/day | NEL (rat [12]; [32]): 36.4 mg/kg/day | NOAEL (rat [12]; [32]): 36.4 mg/kg/day | LEL (rat [12]; [33]): 120 mg/kg/day | LOAEL (rat [12]; [33]): 120 mg/kg/day | NEL (rat [12]; [33]): 30.9 mg/kg/day | NOAEL (rat [12]; [33]): 30.9 mg/kg/day | LEL (rat [12]; [34]): 146 mg/kg/day | LOAEL (rat [12]; [34]): 146 mg/kg/day | NEL (rat [12]; [34]): 36.4 mg/kg/day | NOAEL (rat [12]; [34]): 36.4 mg/kg/day | LOAEL (dog [13]; [35]): 18.5 mg/kg/day | NOAEL (dog [13]; [35]): 3.1 mg/kg/day | LEL (dog [13]; [36]): 3 mg/kg/day | NEL (dog [13]; [36]): < 3 mg/kg/day

CC1(C)CC/C(=C\c2ccc(Cl)cc2)C1(O)Cn1cncn1 (stereo unspecified) [Triticonazole]
LOAEL (rat [14]; systemic / pathology microscopic / adrenal gland / vacuolization): 19.8 mg/kg/day | NOAEL (rat [14]; systemic / pathology microscopic / adrenal gland / vacuolization + systemic / clinical chemistry / alkaline phosphatase (alp/alk) / alkaline…): 2 mg/kg/day | LEL (rat [14]; [37]): 2.2 mg/kg/day | NEL (rat [14]; [37]): < 2.2 mg/kg/day | LEL (rat [15]; [38]): 1000 mg/kg/day | LOAEL (rat [15]; [38]): 1000 mg/kg/day | NEL (rat [15]; [38]): 200 mg/kg/day | NOAEL (rat [15]; [38]): 200 mg/kg/day | LEL (rat [15]; [39]): 1000 mg/kg/day | LOAEL (rat [15]; [39]): 1000 mg/kg/day | NEL (rat [15]; [39]): 200 mg/kg/day | NOAEL (rat [15]; [39]): 200 mg/kg/day | LEL (rat [16]; [40]): 0.2 mg/kg/day | NEL (rat [16]; [40]): < 0.2 mg/kg/day | LOAEL (rat [16]; systemic / pathology microscopic / adrenal gland / inflammation + systemic / in life observation / body weight / body weight + systemic / in…): 287 mg/kg/day | NOAEL (rat [16]; systemic / pathology microscopic / adrenal gland / inflammation + systemic / pathology microscopic / adrenal gland / atypia nuclear): 38.3 mg/kg/day | LEL (rat [17]; [41]): 0.25 mg/kg/day | NEL (rat [17]; [41]): < 0.25 mg/kg/day | LOAEL (rat [17]; [42]): 250 mg/kg/day | NOAEL (rat [17]; [42]): 37.5 mg/kg/day | LOAEL (rat [17]; [43]): 250 mg/kg/day | NOAEL (rat [17]; [43]): 37.5 mg/kg/day | NEL (rat [17]; group: parental, systemic / in life observation / body weight / body weight + systemic / pathology microscopic / adrenal gland / vacuolization + systemic / …): 1.25 mg/kg/day | LEL (rat [17]; group: parental, systemic / organ weight / adrenal gland / absolute): 37.5 mg/kg/day | LEL (rat [17]; [34]): 0.25 mg/kg/day | NEL (rat [17]; [34]): < 0.25 mg/kg/day | LOAEL (rat [17]; group: reproductive, reproductive / reproductive performance / fertility / fertility): 250 mg/kg/day | NOAEL (rat [17]; group: reproductive, reproductive / reproductive performance / fertility / fertility + reproductive / offspring survival early / birth index / live birth index…): 37.5 mg/kg/day | NEL (mouse [18]; [44]): 17.4 mg/kg/day | NOAEL (mouse [18]; [44]): 17.4 mg/kg/day | LEL (mouse [18]; [45]): 202 mg/kg/day | LOAEL (mouse [18]; [45]): 202 mg/kg/day | LOAEL (dog [19]; [46]): 150 mg/kg/day | NOAEL (dog [19]; [46]): 25 mg/kg/day | LEL (dog [19]; [47]): 2.5 mg/kg/day | NEL (dog [19]; [47]): < 2.5 mg/kg/day | LEL (rabbit [20]; [48]): 75 mg/kg/day | LOAEL (rabbit [20]; [48]): 75 mg/kg/day | NEL (rabbit [20]; [48]): 50 mg/kg/day | NOAEL (rabbit [20]; [48]): 50 mg/kg/day | LEL (rabbit [20]; [49]): 50 mg/kg/day | LOAEL (rabbit [20]; [49]): 50 mg/kg/day | NEL (rabbit [20]; [49]): 25 mg/kg/day | NOAEL (rabbit [20]; [49]): 25 mg/kg/day
